Measurements: ChEMBL document CHEMBL5370665, “Insight from Linker Investigations: Discovery of a Novel Phenylbenzothiazole Necroptosis Inhibitor Targeting Receptor-Interacting Protein Kinase 1 (RIPK1) from a Phenoxybenzothiazole Compound with Dual RIPK1/3 Targeting Activity” (J Med Chem, 2023)
Calls of active or inactive are those of the source. No cut-off for these calls is given here.

Tests used:
[1] = biological target: T1, Receptor-interacting serine/threonine-protein kinase 1 (Homo sapiens, UniProt Q13546); experiment: Binding affinity to recombinant RIPK1 (unknown origin) assessed as dissociation constant incubated for 1 hr by KINOMEscanTM assay
T1 sequence (Q13546 whole entry): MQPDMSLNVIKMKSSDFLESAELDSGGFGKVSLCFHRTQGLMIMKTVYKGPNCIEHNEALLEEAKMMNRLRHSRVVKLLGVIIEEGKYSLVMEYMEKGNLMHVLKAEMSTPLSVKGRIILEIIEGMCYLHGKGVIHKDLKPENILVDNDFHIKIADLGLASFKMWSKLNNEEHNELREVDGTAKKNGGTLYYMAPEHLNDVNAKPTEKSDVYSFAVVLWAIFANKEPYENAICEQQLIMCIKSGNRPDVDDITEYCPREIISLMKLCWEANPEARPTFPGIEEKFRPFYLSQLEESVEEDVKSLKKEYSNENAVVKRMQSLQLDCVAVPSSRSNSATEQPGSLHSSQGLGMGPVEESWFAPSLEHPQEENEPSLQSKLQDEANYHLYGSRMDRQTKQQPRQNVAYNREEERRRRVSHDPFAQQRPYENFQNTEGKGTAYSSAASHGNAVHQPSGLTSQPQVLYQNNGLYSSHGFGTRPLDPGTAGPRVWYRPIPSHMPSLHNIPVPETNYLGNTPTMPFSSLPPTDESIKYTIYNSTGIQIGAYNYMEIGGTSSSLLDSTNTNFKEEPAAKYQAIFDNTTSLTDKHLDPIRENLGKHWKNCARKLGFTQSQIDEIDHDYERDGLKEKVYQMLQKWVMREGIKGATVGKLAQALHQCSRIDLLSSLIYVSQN

HT-29 = experiment: Anti-apoptotic activity against human HT-29 cells assessed as inhibition of TC (human TNFalpha, cycloheximide) induced apoptosis upto 1 uM pretreated with compound followed by TC stimulation for 36 hrs by CellTiter-Glo Luminescent cell viability assay; type: functional, cell-based
[2] = biological target: T2, Receptor-interacting serine/threonine-protein kinase 1 (Homo sapiens) (UniProt Q13546); experiment: Inhibition of RIPK1 phosphorylation in TSZ induced human HT-29 cells at 1 uM pretreated with compound followed by TSZ stimulation for 6 hrs by Western blot analysis; type: cell-based
T2 sequence (whole entry): T1 sequence (Q13546 whole entry)

[3] = biological target: T2, Receptor-interacting serine/threonine-protein kinase 1 (Homo sapiens); experiment: Inhibition of RIPK1 phosphorylation in TSZ induced human HT-29 cells at 1 to 1000 nM pretreated with compound followed by TSZ stimulation for 6 hrs by Western blot analysis; type: cell-based; conditions: dose 1-1000 nM
Mus musculus [4] = experiment: Anti-inflammatory activity against C57BL/6J mouse model of TNFalpha-induced systemic inflammatory response syndrome (SIRS) assessed as increase in body temperature at 2.5 mg/kg,po 2 hrs prior to mTNFalpha and z-VAD-FMK stimulation and measured upto 18 hrs by electric thermometer analysis; type: functional, organism-based; conditions: time 20.0 hrs
Mus musculus [5] = experiment: Anti-inflammatory activity against C57BL/6J mouse model of TNFalpha-induced systemic inflammatory response syndrome (SIRS) assessed as increase in survival rate at 5 mg/kg,po 2 hrs prior to mTNFalpha and z-VAD-FMK stimulation and measured upto 24 hrs; type: functional; conditions: time 26 hrs
Mus musculus [6] = experiment: Anti-inflammatory activity against C57BL/6J mouse model of TNFalpha-induced systemic inflammatory response syndrome (SIRS) assessed as decrease in IL-6 level in heart at 1.25 to 5 mg/kg,po 2 hrs prior to mTNFalpha and z-VAD-FMK stimulation for 8 hrs by ELISA; type: functional, organism-based; conditions: dose 1.25-5 mg/kg, time 10.0 hrs
Mus musculus [7] = experiment: Anti-inflammatory activity against C57BL/6J mouse model of TNFalpha-induced systemic inflammatory response syndrome (SIRS) assessed as decrease in IL-6 level in liver at 1.25 to 5 mg/kg,po 2 hrs prior to mTNFalpha and z-VAD-FMK stimulation for 8 hrs by ELISA; type: functional, organism-based; conditions: dose 1.25-5 mg/kg, time 10.0 hrs
Mus musculus [8] = experiment: Anti-inflammatory activity against C57BL/6J mouse model of TNFalpha-induced systemic inflammatory response syndrome (SIRS) assessed as decrease in IL-6 level in kidney at 1.25 to 5 mg/kg,po 2 hrs prior to mTNFalpha and z-VAD-FMK stimulation for 8 hrs by ELISA; type: functional, organism-based; conditions: dose 1.25-5 mg/kg, time 10.0 hrs
Mus musculus [9] = experiment: Anti-inflammatory activity against C57BL/6J mouse model of TNFalpha-induced systemic inflammatory response syndrome (SIRS) assessed as decrease in IL-6 level in brain at 1.25 to 5 mg/kg,po 2 hrs prior to mTNFalpha and z-VAD-FMK stimulation for 8 hrs by ELISA; type: functional, organism-based; conditions: dose 1.25-5 mg/kg, time 10.0 hrs
Mus musculus [10] = experiment: Anti-inflammatory activity against C57BL/6J mouse model of TNFalpha-induced systemic inflammatory response syndrome (SIRS) assessed as decrease in IL-1beta level in kidney at 1.25 to 5 mg/kg,po 2 hrs prior to mTNFalpha and z-VAD-FMK stimulation for 8 hrs by ELISA; type: functional, organism-based; conditions: dose 1.25-5 mg/kg, time 10.0 hrs
[11] = Metabolic stability in human liver mitochondria assessed as degradation rate at 4 micromol/L and measured upto 240 mins; type: ADME; conditions: 4 h, 4 µM, dose 4 µmol/L
[12] = Acute toxicity in mouse assessed as increase in body weight at 100 to 200 mg/kg,IG and measured upto 14 days; type: organism-based; conditions: in vivo, po, 336 h, dose 100-200 mg/kg, time < 14 day
[13] = Acute toxicity in mouse assessed as behavioral changes at 100 to 200 mg/kg,IG and measured upto 14 days; type: organism-based; conditions: in vivo, po, 336 h, dose 100-200 mg/kg, time < 14 day
[14] = Acute toxicity in mouse assessed as pathological damage in heart at 100 to 200 mg/kg,IG and measured after 14 days by H and E staining based microscopy; type: organism-based; conditions: in vivo, po, 336 h, dose 100-200 mg/kg, time 14 day
[15] = Acute toxicity in mouse assessed as pathological damage in liver at 100 to 200 mg/kg,IG and measured after 14 days by H and E staining based microscopy; type: organism-based; conditions: in vivo, po, 336 h, dose 100-200 mg/kg, time 14 day
[16] = Acute toxicity in mouse assessed as pathological damage in kidney at 100 to 200 mg/kg,IG and measured after 14 days by H and E staining based microscopy; type: organism-based; conditions: in vivo, po, 336 h, dose 100-200 mg/kg, time 14 day
[17] = Acute toxicity in mouse assessed as pathological damage in brain at 100 to 200 mg/kg,IG and measured after 14 days by H and E staining based microscopy; type: organism-based; conditions: in vivo, po, 336 h, dose 100-200 mg/kg, time 14 day

O=C(Cc1cccc(OC(F)(F)F)c1)Nc1cc(-c2ccc3nc(NC(=O)C4CC4)sc3c2)ccc1F
Kd [1]: 17 nM | Activity (HT-29): inactive | inhibition [2]: Active | inhibition [3]: Dose-Dependent Effect | Activity (Mus musculus [4]): Active | survival at 5 mg/kg (Mus musculus [5]): 100% | Activity (Mus musculus [6]): Dose-Dependent Effect | Activity (Mus musculus [7]): Dose-Dependent Effect | Activity (Mus musculus [8]): Dose-Dependent Effect | Activity (Mus musculus [9]): Dose-Dependent Effect | Activity (Mus musculus [10]): inactive | Stability [11]: Stable | Activity [12]: Non-Toxic | Activity [13]: Non-Toxic | Activity [14]: Non-Toxic | Activity [15]: Non-Toxic | Activity [16]: Non-Toxic | Activity [17]: Non-Toxic
